Columns and labels:
[1] = cited from earlier work
PDH = conditions: cited from earlier work

melting point [°C] | SMILES | glycaemia ([1]; Stacpoole et al., 1978) | plasma glucose ([1]; after repeated administration) | activity of PDH (PDH; after acute administration in animals) | proportion of PDH in its active form (PDH; single administration, 150 mg/kg, intraperitoneally)
194 to 195 | COc1cc(S(=O)(=O)Nc2ccccc2)c(OC)cc1NC(=O)[C@@](C)(O)C(F)(F)F | – | – | – | –
– | O=C(O)C(Cl)Cl [DCA, dichloroacetic acid] | reducing glycaemia | significant decrease in plasma glucose | increases the activity of PDH | increased the proportion of PDH in its active form

— US6552225B1, “Chemical compounds” (AstraZeneca AB, priority 1999, dated 2003)
